Consider 6 compounds from patent US10864188B2, “Anti-microbial composition” (SEPTEOS, priority 2010, dated 2020).

For one series, the system named is Other Gram - rods. The series can be described thus: MIC of pure components in Mueller Hinton gelose. The class given is cell-based. Set-up: unit not given beside the values. The conditions noted are these: Other Gram - rods n = 15.
Series [1] relates to Staphylococcus And Enterococcus. As to the kind of experiment: MIC of pure components in Mueller Hinton gelose. The arrangement: MIC 50 / MIC 90: unit not given beside the values. The format is cell-based. The conditions noted are these: Staphylococcus And Enterococcus n = 14; for MIC Range: in µg/mL.
The subject of the next series is MRSA. The conditions noted are these: cited from earlier work.
Another series concerns Enterobacteriaceae. The series can be described thus: MIC of pure components in Mueller Hinton gelose. The conditions noted are these: Enterobacteriaceae n = 13. The class given is cell-based. Set-up: unit not given beside the values.

As for `CC(=O)OCC=Cc1ccccc1` [Cinnamyl acetate, cinnamyl acetate], in the series on Other Gram - rods, the “MIC 50” value is recorded as over 10000 and the “MIC 90” value is reported as over 10000. The “MIC Range” value in series [1] is on record as 5000-10000.
Regarding `C=CC(C)(O)CCC=C(C)C` (stereo not shown) [Linalool, linalool], in the series on Other Gram - rods, the “MIC 50” value is listed as over 10000 and the “MIC 90” value is over 10000. The “MIC Range” value in series [1] is given as 2500-10000.
Regarding `CC12CCC(CC1)C(C)(C)O2` [Cineole, cineole], in the series on Other Gram - rods, the “MIC Range” value is over 10000.
As to `O=C/C=C/c1ccccc1` [Cinnamaldehyde, trans-cinnamaldehyde], the “bibliographic kinetic data on the main compound” value in the series with MRSA is 1.7 h. The results for the “MIC Range” value (with Enterobacteriaceae (in µg/mL); with Other Gram - rods (in µg/mL); in series [1]) were 150-600, 150-1250 and 150-300, respectively. In the series with Other Gram - rods, the “MIC 50” value was determined as 600. The “MIC 90” value with Other Gram - rods is 1250.
Regarding `C=C1CC/C=C(\C)CC[C@@H]2[C@@H]1CC2(C)C` [Caryophyllene, beta-caryophyllene], in the series on Enterobacteriaceae, the “MIC 50” value was over 10000, the “MIC 90” value was over 10000 and the “MIC Range” value is on record as over 10000. Also, in the series on Other Gram - rods, the “MIC 50” value is given as over 10000, the “MIC 90” value is listed as over 10000 and the “MIC Range” value is on record as over 10000. In addition, in series [1], the “MIC 50” value is given as over 10000 and the “MIC 90” value is over 10000.
For `O=C(OCc1ccccc1)c1ccccc1` [Benzyl benzoate, benzyl benzoate], the “MIC Range” value with Other Gram - rods is over 10000.
